Source: US20130197036A1, “TRANSDERMAL ABSORPTION PREPARATION” (priority 2010, published 2013)

Tests used:
[1] = Octanol/water partition coefficient; type: physicochemical; conditions: in the range of pH 3 to 9
From the text: However, the octanol/water partition coefficient of compound A in the range of pH 3 to 9 is less than 0.05, which greatly differs from the partition coefficient (100 to 1000) of a compound generally having high membrane permeability. Compound A tends to be difficult to permeate through a membrane. Thus, it is difficult to provide a transdermal preparation comprising compound A or a salt thereof and having transdermal absorbability sufficient to exert a pharmacological effect. A transdermal preparation of compound A or a salt thereof is not known.

[2] = system: fungi, azole antifungal agent-resistant fungi; conditions: Patent Document 1; cited from earlier work

## N=C(N)c1ccc(OCCCC2CCN(CCCOc3ccc(C(=N)N)cc3)CC2)cc1 [compound A, 4-{3-[4-(3-{4-[Amino(imino)methyl]phenoxy}propyl)-1-piperidinyl]propoxy}benzamidine]
[1]
  octanol/water partition coefficient: less than 0.05
[2]
  antifungal activity (in words): strong antifungal activity
